Earlier results on one compound are cited in patent US20150258085A1, “Treating Tumors of the Central Nervous System” (THE REGENTS OF THE UNIVERSITY OF CALIFORNIA, priority 2012, published 2015).

The test system of this series is newly diagnosed glioblastoma. Particulars: systemic irinotecan plus TMZ versus TMZ alone.

In the case of `CCc1c2c(nc3ccc(OC(=O)N4CCC(N5CCCCC5)CC4)cc13)-c1cc3c(c(=O)n1C2)COC(=O)[C@]3(O)CC` [irinotecan], the clinical outcome was “comparable to TMZ alone”; the toxicity / tolerability result is “more toxic and poorly tolerated”.
